Results on eleven compounds are retold here after ChEMBL document CHEMBL1201862, “PubChem BioAssay data set” (2004).

Structures are written as SMILES.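 Protocol summary: plate cells (96-well), add compound at 5 concentrations, incubate 48 h, interpolate endpoints linearly. GI50: concentration for 50% inhibition of growth.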 Activity calls are given as the source filed them. Cut-off read from the data, not from the text of the source: active = GI50 up to about 1.1 µM and inactive = higher.

Among the test systems are SW-620; MDA-MB-231; HCT-15; EKVX; DU-145; MDA-MB-435; OVCAR-5; UACC-257; SNB-75; HCT-116; OVCAR-4; RXF 393; UO-31; CAKI-1; HT-29; NCI-H23; NCI/ADR-RES; HOP-62; LOX IMVI; OVCAR-3.
Assay in all cases: inhibition of tumour cell growth, NCI panel, 48 h

Regarding `Nn1c(CCCCCCCCc2nnc(COc3c(O)ccc4ccccc34)n2N)nnc1COc1c(O)ccc2ccccc12`, the GI50 in the test on SW-620 was > 100 µM (inactive); in the test on MDA-MB-231, > 100 µM (inactive); in the test with HCT-15, more than 100 µM; in the test with EKVX, > 100 µM (inactive); in the test on DU-145, > 100 µM (inactive); in the test with MDA-MB-435 it was > 100 µM (inactive). In addition, the GI50 was > 100 µM (inactive) in the test with OVCAR-5; > 100 µM (inactive) in the test on UACC-257; > 100 µM (inactive) in the test with SNB-75; 49.5 µM (inactive) in the test on HCT-116; 59.6 µM (inactive) in the test on OVCAR-4; 84.3 µM (inactive) in the test on RXF 393. The GI50 with UO-31 is > 100 µM (inactive); in the test with CAKI-1, 27.2 µM (inactive); with HT-29, > 100 µM (inactive); in the test with NCI-H23, > 100 µM (inactive); in the test on NCI/ADR-RES, > 100 µM (inactive).
Consider `COc1ccccc1C1SCC(=O)N1c1ccc(-c2ccc(-n3c(-c4ccccc4)nc4ccccc4c3=O)cc2)cc1` (stereo not drawn), for which the GI50 is > 100 µM (inactive) in the test with SW-620; > 100 µM (inactive) with MDA-MB-231; more than 100 µM in the test on HCT-15; > 100 µM (inactive) in the test with HOP-62; > 100 µM (inactive) in the test on EKVX; > 100 µM (inactive) with DU-145. The GI50 in the test with LOX IMVI, in the test on MDA-MB-435, in the test on OVCAR-5, in the test on UACC-257, with SNB-75 and in the test with HCT-116 was > 100 µM (inactive) throughout. Besides, the GI50 is > 100 µM (inactive) in the test on OVCAR-3; > 10 µM (inactive) in the test with OVCAR-4; 29.9 µM (inactive) in the test with UO-31; > 100 µM (inactive) in the test on CAKI-1; > 100 µM (inactive) in the test with HT-29; > 100 µM (inactive) in the test on NCI-H23. Further, the GI50 in the test on NCI/ADR-RES was > 100 µM (inactive).
On to `Cc1ccc(NC(=O)C(=O)C2C(=O)C3=C(CC2(C)C)NC2C=CC=CC2S3)c(C)c1` (stereo not drawn), for which the GI50 in the test on SW-620 is > 100 µM (inactive); with MDA-MB-231, 53.5 µM (inactive); in the test on HCT-15 it was more than 100 µM; with EKVX, 73.8 µM (inactive); with DU-145, > 100 µM (inactive); in the test on LOX IMVI it was > 100 µM (inactive). For the same compound, the GI50 in the test on MDA-MB-435 was > 100 µM (inactive); with UACC-257, > 100 µM (inactive); in the test on SNB-75, 30.4 µM (inactive); in the test with HCT-116 it was > 100 µM (inactive); in the test on OVCAR-4, > 100 µM (inactive); in the test on RXF 393 it was > 100 µM (inactive). Moreover, the GI50 was 48.2 µM (inactive) in the test with UO-31; > 100 µM (inactive) with CAKI-1; > 100 µM (inactive) in the test with HT-29; > 100 µM (inactive) in the test with NCI-H23; > 100 µM (inactive) in the test on NCI/ADR-RES.
Turning to `Clc1ccc2nc3[nH]nc(Cl)c3nc2c1`, the GI50 is 72.6 µM (inactive) in the test with SW-620; 57.7 µM (inactive) with MDA-MB-231; more than 100 µM in the test on HCT-15; 53.5 µM (inactive) in the test with HOP-62; 16.7 µM (inactive) in the test with EKVX; 50.7 µM (inactive) in the test on DU-145. Moreover, the GI50 in the test with MDA-MB-435 was 77.8 µM (inactive); with OVCAR-5, 48.1 µM (inactive); in the test on UACC-257, 66.8 µM (inactive); with SNB-75, 48.6 µM (inactive); with HCT-116, 42.9 µM (inactive); in the test on OVCAR-3, 66.8 µM (inactive). Moreover, the GI50 in the test with OVCAR-4 is 63.2 µM (inactive); with RXF 393, 35 µM (inactive); in the test with UO-31, 22.8 µM (inactive); in the test on CAKI-1, 49.1 µM (inactive); in the test with HT-29, 59.3 µM (inactive); in the test on NCI-H23, 48.1 µM (inactive). In addition, the GI50 with NCI/ADR-RES was 56.2 µM (inactive).
Regarding `CCCCSC1=N/C(=C\c2ccco2)C(=O)N1`, the GI50 was 35.8 µM (inactive) in the test on SW-620; 99.8 µM (inactive) in the test on MDA-MB-231; 34.6 µM in the test with HCT-15; > 100 µM (inactive) in the test with HOP-62; 36.6 µM (inactive) in the test on EKVX; 67.8 µM (inactive) in the test on DU-145. Moreover, the GI50 in the test with MDA-MB-435 was 36.7 µM (inactive); with OVCAR-5 it was > 100 µM (inactive); in the test with UACC-257, 34.8 µM (inactive); in the test with SNB-75 it was 25.9 µM (inactive); in the test with HCT-116 it was 56.1 µM (inactive); in the test with OVCAR-3, 48.4 µM (inactive). Moreover, the GI50 is 60.1 µM (inactive) with OVCAR-4; 12.1 µM (inactive) in the test on RXF 393; 54 µM (inactive) with UO-31; 74.5 µM (inactive) in the test on CAKI-1; 47.6 µM (inactive) in the test on HT-29; 36.3 µM (inactive) in the test with NCI-H23. Besides, the GI50 with NCI/ADR-RES is 31.9 µM (inactive).
On to `COc1ccc(/N=N/C(=N/NC(=O)c2ccc(C)cc2)c2ccc(N(CCC#N)CCC#N)cc2OC)cc1`, for which the GI50 in the test with SW-620 was > 100 µM (inactive); in the test on MDA-MB-231, > 100 µM (inactive); in the test with HCT-15 it was more than 100 µM; in the test with HOP-62, > 100 µM (inactive); with EKVX, > 100 µM (inactive); in the test with DU-145, > 100 µM (inactive). For the same compound, the GI50 with LOX IMVI, with MDA-MB-435, in the test on OVCAR-5, with UACC-257, with HCT-116 and with OVCAR-3 was > 100 µM (inactive) each time. The GI50 in the test on OVCAR-4, in the test with RXF 393, in the test on UO-31, in the test on CAKI-1, with HT-29 and in the test on NCI-H23 was > 100 µM (inactive) throughout. Besides, the GI50 in the test with NCI/ADR-RES was > 100 µM (inactive).
Turning to `Cc1c(/C=N\NC(=S)N2CCN(C(=S)N/N=C\c3c(C)n(C)n(-c4ccccc4)c3=O)CC2)c(=O)n(-c2ccccc2)n1C`, the GI50 is 33.2 µM (inactive) with SW-620; 24 µM (inactive) in the test on MDA-MB-231; 46.9 µM with HCT-15; 37.2 µM (inactive) with HOP-62; 71.6 µM (inactive) with EKVX; 56 µM (inactive) in the test with DU-145. For the same compound, the GI50 is 4.52 µM (inactive) with MDA-MB-435; > 100 µM (inactive) in the test with OVCAR-5; 26.8 µM (inactive) with UACC-257; 21.8 µM (inactive) in the test on SNB-75; 49.5 µM (inactive) in the test on HCT-116; 51.9 µM (inactive) with OVCAR-3. Further, the GI50 was > 100 µM (inactive) in the test on OVCAR-4; 67.9 µM (inactive) with RXF 393; > 100 µM (inactive) in the test with UO-31; 82.6 µM (inactive) in the test with CAKI-1; 13.1 µM (inactive) in the test on HT-29; 50.9 µM (inactive) in the test on NCI-H23. Further, the GI50 with NCI/ADR-RES was > 100 µM (inactive).
Turning to `CCNC1=C(NC(=O)CC)C(=O)c2ccccc2C1=O`, the GI50 was 60.4 µM (inactive) in the test on SW-620; > 100 µM (inactive) in the test on MDA-MB-231; 64.3 µM in the test on HCT-15; > 100 µM (inactive) in the test with HOP-62; > 100 µM (inactive) in the test with EKVX; > 100 µM (inactive) in the test on DU-145. Moreover, the GI50 in the test on MDA-MB-435 was > 10 µM (inactive); in the test with OVCAR-5 it was > 100 µM (inactive); in the test on UACC-257, 30.2 µM (inactive); with SNB-75 it was > 100 µM (inactive); with HCT-116, 36.7 µM (inactive); in the test with OVCAR-3, 32.1 µM (inactive). Besides, the GI50 was 87.3 µM (inactive) in the test on OVCAR-4; 48.1 µM (inactive) in the test with RXF 393; 34.8 µM (inactive) in the test with HT-29; 70.8 µM (inactive) in the test with NCI-H23; 58.7 µM (inactive) with NCI/ADR-RES.
Turning to `Clc1ccc(Cc2nc3ccccc3nc2-c2cccc(Cl)c2)cc1`, the GI50 is 1.61 µM (inactive) with SW-620; 2.47 µM (inactive) in the test with MDA-MB-231; 1.66 µM with HCT-15; 17.8 µM (inactive) in the test with HOP-62; 17.5 µM (inactive) in the test with EKVX; 14.2 µM (inactive) with DU-145. Besides, the GI50 in the test with LOX IMVI is 1.95 µM (inactive); in the test with MDA-MB-435, 1.95 µM (inactive); in the test on OVCAR-5, 7.38 µM (inactive); in the test with UACC-257, 13.8 µM (inactive); in the test with HCT-116, 1.72 µM (inactive); in the test with OVCAR-3, 4.21 µM (inactive). The GI50 in the test with OVCAR-4 was 1.51 µM (inactive); with RXF 393 it was 2.04 µM (inactive); in the test on UO-31 it was 1.78 µM (inactive); in the test with CAKI-1, 2.73 µM (inactive); with HT-29 it was 2.61 µM (inactive); with NCI-H23, 13.5 µM (inactive). In addition, in the test with NCI/ADR-RES, the GI50 is 3.1 µM (inactive).
In the case of `CCCCC/C=C1/CC(CO)(COC(=O)CC(C(C)C)C(C)C)OC1=O` (stereo not drawn), the GI50 is 18.3 µM (inactive) in the test with SW-620; 15.6 µM (inactive) with MDA-MB-231; 18.7 µM in the test on HCT-15; 7.74 µM (inactive) in the test on HOP-62; 14.2 µM (inactive) with EKVX; 13.4 µM (inactive) with DU-145. The GI50 is 6.27 µM (inactive) in the test with MDA-MB-435; 15.4 µM (inactive) in the test on OVCAR-5; 21.4 µM (inactive) in the test with UACC-257; 10.3 µM (inactive) in the test on SNB-75; 14.8 µM (inactive) with HCT-116; 17.7 µM (inactive) with OVCAR-3. The GI50 in the test on OVCAR-4 is 26.5 µM (inactive); in the test on RXF 393, 16.3 µM (inactive); in the test with UO-31, 11.9 µM (inactive); in the test with CAKI-1 it was 10.7 µM (inactive); with HT-29, 19.5 µM (inactive); with NCI-H23, 16 µM (inactive). The GI50 in the test with NCI/ADR-RES is 17.9 µM (inactive).
Regarding `Cc1nnc2sc(-c3ccc(N)cc3)nn12`, the GI50 in the test on SW-620 is > 100 µM (inactive); in the test on MDA-MB-231, > 100 µM (inactive); in the test with HCT-15, more than 100 µM; with HOP-62, > 100 µM (inactive); in the test with EKVX it was > 100 µM (inactive); in the test on DU-145 it was > 100 µM (inactive). Also, the GI50 in the test on MDA-MB-435 is > 100 µM (inactive); with OVCAR-5, > 100 µM (inactive); in the test on UACC-257, > 100 µM (inactive); in the test on SNB-75, 21.3 µM (inactive); with HCT-116, > 100 µM (inactive); in the test with OVCAR-3, > 100 µM (inactive). In addition, the GI50 in the test on OVCAR-4, with RXF 393, with UO-31, with CAKI-1, in the test with HT-29 and in the test on NCI-H23 was > 100 µM (inactive) throughout. For the same compound, in the test with NCI/ADR-RES, the GI50 is > 100 µM (inactive).
